Structures can show the parent of a compound that is named as a salt. Active and inactive are the calls of the source. The rule behind the calls is not given here.
Test: Cytotoxicity activity against human HepG2 cells assessed by CellTiter-Glo luminescent cell viability assay.
Assay type: toxicity, cell-based
Set-up: assay stage confirmatory assay, source tissue liver
Settings: HepG2 cells, read-out: IC50 relative

Structure (SMILES) | CC50
COc1c(C)cnc(Cn2cnc3c(Cl)nc(N)nc32)c1C [BIIB021] | 0.4 µM (active)
Nc1nccc(-n2nnc3ccccc32)n1 | 8.7 µM (active)
CC(C)N1CCC(NC(=O)CN2CCCN(Cc3ccccc3)c3ccccc32)CC1 | 12.4 µM (active)
CCn1c(=O)c2sc(N3CCCC3)nc2n(CC(=O)Nc2ccc(OC)cc2)c1=O | 31.4 µM (inactive)
COCCn1cc(C(=O)Nc2nc3ccccc3[nH]2)c2ccccc21 | 11.7 µM (inactive)
COc1ccc(-c2nc(NCCN3CCN(C)CC3)c3ccccc3n2)cc1 | 7.9 µM (active)
O=C1C(=O)c2cc([N+](=O)[O-])ccc2-c2ccccc21 | 1.5 µM (active)
CCC(C)n1ncn(-c2ccc(N3CCN(c4ccc(OCC5COC(Cn6cncn6)(c6ccc(Cl)cc6Cl)O5)cc4)CC3)cc2)c1=O (stereo not drawn) [ITRACONAZOLE] | 4.9 µM (active)
N#Cc1ccc(NC(=O)NCc2cnc3scc(-c4ccc(Br)cc4)n23)cc1 | 35 µM (active)
CN(C)CC#Cc1ccc(OCCCc2sc(N3CCc4cccc(C(=O)Nc5nc6ccccc6s5)c4C3)nc2C(=O)O)c(F)c1 [A-1155463] | 2.3 µM (active)
O=C(Nc1ccnc2ccnn12)c1ccc2ccccc2n1 | 1.4 µM (active)
O=c1[nH]c2ccccc2n1C1CCN(CCCC(c2ccc(F)cc2)c2ccc(F)cc2)CC1 [PIMOZIDE] | 4.6 µM (active)
Cc1ccc(-n2nc(C(C)(C)C)cc2NC(=O)NCc2cc(F)ccc2Oc2ccc3c(cnn3CCO)c2)cc1 [PEXMETINIB] | 2.4 µM (active)
CCOc1ccc(NC(=O)C2CCN(S(=O)(=O)c3ccc4c(c3)OCCCO4)CC2)cc1 | 50 µM (inactive)
O=C(Cc1cccc(F)c1)Nc1cccc2ncccc12 | 14.5 µM (inactive)
Cn1c(Nc2ccc(C(F)(F)F)cc2)nc2cc(Oc3ccnc(-c4ncc(C(F)(F)F)[nH]4)c3)ccc21 [RAF-265] | 1.5 µM (active)
Cc1c2ccncc2c(C)c2c1[nH]c1ccccc12 | 1.4 µM (active)

Structure (SMILES) | CC50
CCOc1ccccc1-n1c(C(C)N2CCN(C(=O)COc3ccc(Cl)cc3)CC2)nc2ccccc2c1=O (stereo not drawn) [ERASTIN] | 1.8 µM (active)
COc1ccc(C[C@H](NC(=O)[C@H](C)NC(=O)CN2CCOCC2)C(=O)N[C@@H](Cc2ccccc2)C(=O)[C@@]2(C)CO2)cc1 | 0.5 µM (active)
CCn1nc(C)cc1C(=O)Nc1nc2cc(C#N)ccc2n1CC | 4 µM (active)
C[C@H](O)CN1CCC(CNCc2ccc(Br)cc2)CC1 | 5.3 µM (active)
CCn1c(-c2cccc(S(=O)(=O)N3CCOCC3)c2)cs/c1=N/c1ccccc1 | 5 µM (active)
CCn1c(=O)c(C)nc2cc(C(=O)N3CCN(Cc4ccc(OC)cc4)CC3)ccc21 | 7.3 µM (active)
CCOC(=O)CNS(=O)(=O)c1cc(-c2nnc(Nc3cccc(O)c3)c3ccccc23)ccc1C | 4.1 µM (active)
Cc1ccc(S(=O)(=O)NCCCNC(=O)c2c3c(nn2C)CCCC3)cc1 | 4.6 µM (active)
Cc1ncc(NC(=O)c2ccc(CN3CCN(C)CC3)c(C(F)(F)F)c2)cc1Nc1nccc(-c2cccnc2)n1 [FLUMATINIB] | 3.3 µM (active)
CCNC(=O)c1noc(-c2cc(C(C)C)c(O)cc2O)c1-c1ccc(CN2CCOCC2)cc1 [LUMINESPIB] | < 0.1 µM (active)
CCCCOc1ccc(C(=O)CCN2CCCCC2)cc1 [DYCLONINE HYDROCHLORIDE] | 9.9 µM (active)
O=c1cc(-c2ccc(O)c(O)c2)oc2cc(O[C@@H]3O[C@H](CO)[C@@H](O)[C@H](O)[C@H]3O)cc(O)c12 [GALUTEOLIN] | 5.7 µM (inactive)
CCN1CCN(C(=O)C2CCCN(c3nn4cc(-c5ccc(OC)cc5)nc4s3)C2)CC1 (stereo not drawn) | 12.8 µM (active)
O=C(Nc1ccc(Cn2cnc3ccccc32)cc1)c1ccc(=O)[nH]n1 | 9.7 µM (inactive)
CCCCOc1ccc(-c2cc3c4nnc(CCC(=O)N5CCN(CC)CC5)n4ccn3n2)cc1 | 4.2 µM (active)
CNC(=O)[C@@H](c1ccccc1)N1CCc2cc(OC)c(OC)cc2[C@@H]1CCc1ccc(C(F)(F)F)cc1 [ALMOREXANT] | 20.4 µM (inactive)
